Test results from PubChem BioAssay (NCI).
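48-hour exposure; five concentrations; linearly interpolated endpoints. TGI: total growth inhibition.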

Key:
Assay in all cases: NCI tumour cell line growth inhibition, 48 h
A549 NSCLC = system: A549 NSCLC
SW-620 colon = system: SW-620 colon
OVCAR-8 ovarian = system: OVCAR-8 ovarian
ACHN renal = system: ACHN renal
LOX IMVI melanoma = system: LOX IMVI melanoma
MDA-N = system: MDA-N
RXF 393 renal = system: RXF 393 renal
SK-MEL-5 melanoma = system: SK-MEL-5 melanoma
786-0 renal = system: 786-0 renal
HOP-92 NSCLC = system: HOP-92 NSCLC
T-47D breast = system: T-47D breast
MOLT-4 leukemia = system: MOLT-4 leukemia
NCI-H226 lung = system: NCI-H226 lung
SNB-19 CNS = system: SNB-19 CNS
HL-60(TB) leukemia = system: HL-60(TB) leukemia
KM12 colon = system: KM12 colon
NCI-H522 lung = system: NCI-H522 lung
EKVX NSCLC = system: EKVX NSCLC
DU-145 prostate = system: DU-145 prostate
U251 CNS = system: U251 CNS
SN12C renal = system: SN12C renal
COLO 205 colon = system: COLO 205 colon
PC-3 prostate = system: PC-3 prostate
CCRF-CEM leukemia = system: CCRF-CEM leukemia
M14 melanoma = system: M14 melanoma
A498 renal = system: A498 renal
SF-295 CNS = system: SF-295 CNS
SK-MEL-28 melanoma = system: SK-MEL-28 melanoma
MALME-3M melanoma = system: MALME-3M melanoma
HCT-15 colon = system: HCT-15 colon
OVCAR-5 ovarian = system: OVCAR-5 ovarian
MDA-MB-231 breast = system: MDA-MB-231 breast
IGROV1 ovarian = system: IGROV1 ovarian
NCI/ADR-RES ovarian = system: NCI/ADR-RES ovarian
TK-10 renal = system: TK-10 renal
NCI-H23 lung = system: NCI-H23 lung
UACC-257 melanoma = system: UACC-257 melanoma
SF-268 CNS = system: SF-268 CNS
SK-MEL-2 melanoma = system: SK-MEL-2 melanoma
OVCAR-3 ovarian = system: OVCAR-3 ovarian
HOP-62 NSCLC = system: HOP-62 NSCLC
UO-31 renal = system: UO-31 renal
SK-OV-3 ovarian = system: SK-OV-3 ovarian
NCI-H460 lung = system: NCI-H460 lung
UACC-62 melanoma = system: UACC-62 melanoma
HS 578T breast = system: HS 578T breast
BT-549 breast = system: BT-549 breast
K-562 leukemia = system: K-562 leukemia
SNB-75 CNS = system: SNB-75 CNS
SR leukemia = system: SR leukemia
HCT-116 colon = system: HCT-116 colon
MCF7 breast = system: MCF7 breast
HCC-2998 colon = system: HCC-2998 colon
HT29 colon = system: HT29 colon
CAKI-1 renal = system: CAKI-1 renal
MDA-MB-435 = system: MDA-MB-435
SF-539 CNS = system: SF-539 CNS
OVCAR-4 ovarian = system: OVCAR-4 ovarian
RPMI-8226 leukemia = system: RPMI-8226 leukemia

`O=C1Nc2ccccc2C1=Nc1ccc(S(=O)(=O)Nc2nccs2)cc1` was tested, and the TGI (A549 NSCLC) was > 100 µM, the TGI (SW-620 colon) was > 100 µM and the TGI (OVCAR-8 ovarian) was > 100 µM. For the same compound, the TGI (ACHN renal) was > 100 µM, the TGI (LOX IMVI melanoma) was > 100 µM and the TGI (MDA-N) was > 100 µM. For the same compound, the TGI (RXF 393 renal) was > 100 µM, the TGI (SK-MEL-5 melanoma) was > 100 µM and the TGI (786-0 renal) was > 100 µM. The TGI (HOP-92 NSCLC) was > 100 µM, the TGI (T-47D breast) was > 100 µM and the TGI (MOLT-4 leukemia) was > 100 µM. The TGI (NCI-H226 lung) was > 100 µM, the TGI (SNB-19 CNS) was > 100 µM and the TGI (HL-60(TB) leukemia) was > 100 µM. For the same compound, the TGI (KM12 colon) was > 100 µM, the TGI (NCI-H522 lung) was > 100 µM and the TGI (EKVX NSCLC) was > 100 µM. The TGI (DU-145 prostate) was > 100 µM, the TGI (U251 CNS) was > 100 µM and the TGI (SN12C renal) was > 100 µM. The TGI (COLO 205 colon) was > 100 µM, the TGI (PC-3 prostate) was > 100 µM and the TGI (CCRF-CEM leukemia) was > 100 µM. For the same compound, the TGI (M14 melanoma) was > 100 µM, the TGI (A498 renal) was > 100 µM and the TGI (SF-295 CNS) was > 100 µM. For the same compound, the TGI (SK-MEL-28 melanoma) was > 100 µM, the TGI (MALME-3M melanoma) was > 100 µM and the TGI (HCT-15 colon) was > 100 µM. The TGI (OVCAR-5 ovarian) was > 100 µM, the TGI (MDA-MB-231 breast) was > 100 µM and the TGI (IGROV1 ovarian) was > 100 µM. For the same compound, the TGI (NCI/ADR-RES ovarian) was > 100 µM, the TGI (TK-10 renal) was > 100 µM and the TGI (NCI-H23 lung) was > 100 µM. For the same compound, the TGI (UACC-257 melanoma) was > 100 µM, the TGI (SF-268 CNS) was > 100 µM and the TGI (SK-MEL-2 melanoma) was > 100 µM. The TGI (OVCAR-3 ovarian) was > 100 µM, the TGI (HOP-62 NSCLC) was > 100 µM and the TGI (UO-31 renal) was > 100 µM. The TGI (SK-OV-3 ovarian) was > 100 µM, the TGI (NCI-H460 lung) was > 100 µM and the TGI (UACC-62 melanoma) was > 100 µM. The TGI (HS 578T breast) was > 100 µM, the TGI (BT-549 breast) was > 100 µM and the TGI (K-562 leukemia) was > 100 µM. For the same compound, the TGI (SNB-75 CNS) was > 100 µM, the TGI (SR leukemia) was > 100 µM and the TGI (HCT-116 colon) was > 100 µM. The TGI (MCF7 breast) was > 100 µM, the TGI (HCC-2998 colon) was > 100 µM and the TGI (HT29 colon) was > 100 µM. For the same compound, the TGI (CAKI-1 renal) was > 100 µM, the TGI (MDA-MB-435) was > 100 µM and the TGI (SF-539 CNS) was > 100 µM. For the same compound, the TGI (OVCAR-4 ovarian) was > 100 µM.
With `CN(C)Cc1cc(N=Nc2ccccc2)ccc1O` the TGI (A549 NSCLC) was > 100 µM, the TGI (SW-620 colon) was > 100 µM and the TGI (OVCAR-8 ovarian) was > 100 µM. The TGI (ACHN renal) was > 100 µM, the TGI (LOX IMVI melanoma) was > 100 µM and the TGI (MDA-N) was > 100 µM. The TGI (RXF 393 renal) was 69.2 µM, the TGI (SK-MEL-5 melanoma) was 29.4 µM and the TGI (786-0 renal) was > 100 µM. The TGI (HOP-92 NSCLC) was > 100 µM, the TGI (T-47D breast) was > 100 µM and the TGI (MOLT-4 leukemia) was > 100 µM. The TGI (NCI-H226 lung) was > 100 µM, the TGI (SNB-19 CNS) was > 100 µM and the TGI (HL-60(TB) leukemia) was > 100 µM. The TGI (KM12 colon) was > 100 µM, the TGI (NCI-H522 lung) was 73.9 µM and the TGI (EKVX NSCLC) was > 100 µM. The TGI (DU-145 prostate) was > 100 µM, the TGI (U251 CNS) was > 100 µM and the TGI (SN12C renal) was > 100 µM. The TGI (COLO 205 colon) was > 100 µM, the TGI (PC-3 prostate) was > 100 µM and the TGI (CCRF-CEM leukemia) was > 100 µM. The TGI (M14 melanoma) was > 100 µM, the TGI (A498 renal) was 79.1 µM and the TGI (SF-295 CNS) was > 100 µM. The TGI (SK-MEL-28 melanoma) was > 100 µM, the TGI (MALME-3M melanoma) was > 100 µM and the TGI (HCT-15 colon) was > 100 µM. For the same compound, the TGI (OVCAR-5 ovarian) was > 100 µM, the TGI (MDA-MB-231 breast) was > 100 µM and the TGI (IGROV1 ovarian) was > 100 µM. For the same compound, the TGI (NCI/ADR-RES ovarian) was > 100 µM, the TGI (TK-10 renal) was > 100 µM and the TGI (RPMI-8226 leukemia) was > 100 µM. For the same compound, the TGI (NCI-H23 lung) was > 100 µM, the TGI (UACC-257 melanoma) was 76.9 µM and the TGI (SF-268 CNS) was > 100 µM. The TGI (SK-MEL-2 melanoma) was > 100 µM, the TGI (OVCAR-3 ovarian) was > 100 µM and the TGI (HOP-62 NSCLC) was > 100 µM. The TGI (UO-31 renal) was 89.6 µM, the TGI (NCI-H460 lung) was > 100 µM and the TGI (UACC-62 melanoma) was 69.2 µM. The TGI (HS 578T breast) was > 100 µM, the TGI (BT-549 breast) was > 100 µM and the TGI (K-562 leukemia) was 58.1 µM. For the same compound, the TGI (SNB-75 CNS) was > 100 µM, the TGI (SR leukemia) was > 100 µM and the TGI (HCT-116 colon) was > 100 µM. For the same compound, the TGI (MCF7 breast) was > 100 µM, the TGI (HCC-2998 colon) was > 100 µM and the TGI (HT29 colon) was > 100 µM. The TGI (CAKI-1 renal) was > 100 µM, the TGI (MDA-MB-435) was > 100 µM and the TGI (SF-539 CNS) was > 100 µM.
